Source: patent US20240109917A1 (ACTELION PHARMACEUTICALS LTD, priority 2020, published 2024)
Like-named read-outs stand apart in the source and are kept apart here.

Key:
VEGFR2, unphosphorylated = VEGFR2, unphosphorylated (Homo sapiens (Human), UniProt P35968); assay: VEGFR ADP GLO Assay; format: biochemical
Protocol: (§1) II. Methods and Procedures
Assay buffer stock contains 50 mM HEPES pH7.5, 10 mM MgCl2, 0.01% Brij-35, and 1 mM EGTA.
Unphosphorylated VEGFR2. […] Store at −80° C. in aliquots.
Sonicate 10 mg/ml Srctide solution for 10 minutes and then vacuum filter.
Freshly Prepared Solutions
2× kinase solution. Make a working solution of 10 nM unphosphorylated VEGFR2 in Assay buffer. Vacuum filter 2× kinase solution prior to running assay. Keep on ice until use.
2× substrate/ATP solution. Make a working solution of 2 mg/mL srctide and 2.4 mM ATP in Assay buffer. Keep on ice until use.
Step 1. Dispensing inhibitors/controls: Using Echo, dispense 10 nL/well compound serial dilutions in DMSO to columns 1-22 (in 384-well plates) or columns 1-44 (in 1536-well plates). Dilution series=11 pt, 3-fold dilutions. The top compound concentration in the source plate is 4 mM. The top compound concentration in the assay plate is 10 uM. Using Echo, dispense 10 nl/well DMSO to column 23 (in 384-well plates) or columns 45-47 (in 1536-well plates). […] These wells will serve as positive control wells.
Step 2. Pre-incubation of inhibitors with kinase: Add 2 μL/well 2× kinase solution. Centrifuge at 1000 rpm for 1 min. Incubate at room temperature for 30 min.
Step 3. Kinase cascade reaction: Add 2 μL/well 2× substrate/ATP solution to initiate kinase reactions. Centrifuge at 1000 rpm for 1 min. Incubate at room temperature for 180 min.
Final concentrations of components in the assay:
Step 4. Quench: Add 2 uL/well ADP Glo Reagent+0.05% CHAPS. Centrifuge at 1000 rpm for 1 min; Incubate at room temperature for one hour.
Step 5. Detection: Add 2 uL/well Kinase Detection Reagent+0.05% CHAPS. Centrifuge at 1000 rpm for 1 min; Incubate at room temperature for 1 hour; Read Luminescence on a plate reader.
(§2) III. Calculations and Formulas
IC50 values are determined from a 4-parameter fit, using the following equation: Y=Bottom+(Top−Bottom)/(1+10^(Log IC50-X)*Hill slope) where X=log10 of the compound concentration; top can be defined by PC; bottom defined by NC.

PDGFRβ = PDGFRβ (Rattus norvegicus (Rat), UniProt Q05030); assay: PDGFRβ Cellular Assay (PDGFRb P-Y751 HTRF in A10 cells stimulated with PDGF-BB); format: cell-based
Protocol: as §1
Cell Culture and Preparation: Cells are cultured according to ATCC procedure (5) with the addition of the antibiotic penicillin-streptomycin. If working from frozen, cells should be thawed according to ATCC procedure. Depending on the cell density of frozen vial, cells will need time to recover from thaw. An 80% confluent T75 flask should be enough for one 384 well plate.
Stock Solutions: Rat PDGFBB. A 100 ug/mL stock is prepared by reconstituting 50 ug in 500 uL of 4 mM HCl and 0.1% BSA. It can be stored for a month at 4° C., or aliquoted out and frozen in the −20/−80° C. to avoid multiple free-thaw cycles.
(§3) Freshly Prepared Solutions:
1× Cisbio cell lysis buffer. The cell lysis buffer is diluted 4-fold with molecular grade water. The blocking agent is then diluted 25-fold in the diluted lysis buffer.
Antibody solutions. Equal amounts d2 and cryptate antibody are diluted 20-fold in detection buffer.
Rat PDGFBB. A working stock of 100 ng/mL is created from the stock solution in 10% FBS culture media.
Step 1: Plating Cells: Media from the A10 cell flask is aspirated. The cells are rinsed with PBS and then trypsinized to disperse the cell layer. The cells are then pelleted are resuspended to 1.25e5 cells/mL. […] Plates are covered and placed in the incubator (37° C. 5% CO2) overnight to allow cells to adhere.
Step 2: Compound Dispense: Approximately 18 hours after plating, dispense 40 nL compound onto cells using Echo. Column 12 is the neutral control DMSO, column 24 is the inhibitor control 10 mM Imatinib (10 uM final assay concentration). The plate is returned to the incubator for 3 hours.
After 10 minutes the media is removed by flicking the plate.
Step 4: Cell lysis and antibody addition: 20 uL lysis buffer per well is added to the plate via Tempest. 5 uL antibody solution is added per well via the Tempest. The plate is placed on the shaker at 230 rpm for 1 hour at room temperature.
Step 5: Detection: The plate is read using the HTRF module on the BMG Pherastar. Data is analyzed using Genedata Screener.
as §2
% Inhibition: % Inhibition=(NC−sample)/(NC−PC)*100 where NC is the mean of negative control (reactions without inhibitor), and PC is the mean of positive control (10 μM imatinib).
IC50 values are determined from a 4-parameter fit, using the following equation: Y=Bottom+(Top−Bottom)/(1+10((Log IC50−X)*Hill slope)), where X=log10 of the compound concentration; top can be defined by PC; bottom defined by NC.

[1] = target: His6-TEV-PDGFRβ (557-1016) (Homo sapiens (Human), UniProt P09619); assay: PDGFRβ HTRF Assay; format: biochemical; settings: read-out: PDGFR HTRF IC50
Protocol: Instrumentation: a. Compound liquid handling: LabCyte Echo; b. Reagent liquid handling: Thermo Scientific Multidrop Combi; c. BMG PHERAStar multilabel plate reader.
Protein Reagent: His6-TEV-PDGFRβ Protein Prep prepared at Accelagen.
as §1
Assay buffer stock solution, contains 50 mM Hepes, 10 mM MgCl2, 1 mM EGTA, and 0.01% Brij-35, 0.01% ovalbumin, 2 mM DTT at pH 7.5, in molecular biology grade water. Store at room temperature.
DTT, 2 M in molecular biology grade water, store at −20° C. in aliquots.
Ovalbumin, 10% or 100 mg/mL, prepare fresh on experimental day.
PDGFRβ, 116 μM (PDGFRb_08 Prep 02), produced at Accelagen. Store at −80° C. in aliquots.
TK-biotin peptide, […] in molecular biology grade water, store at −20° C. in aliquots.
ATP, 100 mM in molecular biology grade water, store at −20° C. in aliquots.
HTRF KinEASE-TK kit: Allow the contents of the Cisbio kit to warm up to room temperature before use. This kit contains HTRF detection buffer, TK-Antibody labeled with Eu^3+-cryptate, TK-substrate biotin and Streptavidin-XL665.
TK Substrate-Biotin, reconstitute 500 μg lyopholized with 574 μL molecular biology grade water to prepare a 500 μM stock; After use, aliquot the rest and store at −20° C.
TK Antibody-Cryptate, reconstitute lyophilized with 1 mL of molecular biology grade water (100× solution) then add 99 mL detection buffer to prepare a ready to use TK-antibody-cryptate solution; the concentration of the TK-antibody-cryptate reagent is not known. After use, aliquot the rest and store at −20° C.
Streptavidin-XL665, reconstitute 3 mg lyophilized with 3 mL molecular biology grade water to prepare a 1 mg/mL or 16.67 μM stock; MW=60 kDa; After use, aliquot the rest and store at −20° C.
as §3
Assay buffer. Dilute 5× Kinase buffer 5-fold with molecular biology grade water and add DTT to 2 mM and ovalbumin to 0.1 mg/mL (or 0.01%).
2× protein solution. Make a working solution of […] PDGFRβ in assay buffer. Keep on ice until use to maintain enzyme stability.
2× substrate solution. Make a working solution of 1.6 mM ATP and 1 μM TK-substrate biotin peptide in assay buffer.
3× quench/detection solution. Make a working solution of 0.1875 μM SA-XL665 and the TK-antibody cryptate diluted by 12 of total quench/detection volume in assay buffer.
Keep final streptavidin/biotin ratio at 1 to 8.
Example of 3× quench/detection solution preparation: 8 mL total volume.
TK antibody-cryptate in detection buffer—4000 μL
The kinase reaction is stopped by the addition of the detection reagents which contain EDTA (detection step).
Assay in white ProxiPlate 384-well
Step 1. Dispensing inhibitors/DMSO and low control: Using the ECHO 555 acoustic dispenser, spot desired compound serial dilutions in DMSO, NEAT DMSO to represent the uninhibited enzyme control, and 10 μM final [imatinib] to the represent the 100% inhibited enzyme control
Step 2. PDGFRβ E+I pre-incubation: Add 2 μL 2× protein solution to columns 1-24 using the Multidrop Combi. Centrifuge at 1000 rpm for 1 min. Incubate 30 min at RT
Step 2. Enzymatic reaction: Add 2 μL substrate solution to columns 1-24 to initiate the reaction using the Multidrop Combi; cover/seal the assay plate to reduce evaporation. Centrifuge at 1000 rpm for 1 min. Incubate at room temperature for 3 hours.
Step 3. Quench/Detection: Add 2 μl 3× quench/detection solution to columns 1-24 using the Multidrop Combi; cover/seal the plate. Centrifuge 1 min 1000 rpm. Incubate at RT for 60 min. Read the plate in PHERAstar (or similar instrument) on HTRF setting at excitation 337 nm—dual emission—665/620 nm ratio.
as §2
HTRF ratio values calculated by the instrument (Ratio is acceptor counts/donor counts*10,000) is exported from the plate reader and used in data analysis. […] Assay statistics can include Robust Z′ and Signal to Background.
% Inhibition Calculation: Percent inhibition will be calculated for sample wells based on the equation: […]

Sequence of VEGFR2, unphosphorylated (P35968 20-1356): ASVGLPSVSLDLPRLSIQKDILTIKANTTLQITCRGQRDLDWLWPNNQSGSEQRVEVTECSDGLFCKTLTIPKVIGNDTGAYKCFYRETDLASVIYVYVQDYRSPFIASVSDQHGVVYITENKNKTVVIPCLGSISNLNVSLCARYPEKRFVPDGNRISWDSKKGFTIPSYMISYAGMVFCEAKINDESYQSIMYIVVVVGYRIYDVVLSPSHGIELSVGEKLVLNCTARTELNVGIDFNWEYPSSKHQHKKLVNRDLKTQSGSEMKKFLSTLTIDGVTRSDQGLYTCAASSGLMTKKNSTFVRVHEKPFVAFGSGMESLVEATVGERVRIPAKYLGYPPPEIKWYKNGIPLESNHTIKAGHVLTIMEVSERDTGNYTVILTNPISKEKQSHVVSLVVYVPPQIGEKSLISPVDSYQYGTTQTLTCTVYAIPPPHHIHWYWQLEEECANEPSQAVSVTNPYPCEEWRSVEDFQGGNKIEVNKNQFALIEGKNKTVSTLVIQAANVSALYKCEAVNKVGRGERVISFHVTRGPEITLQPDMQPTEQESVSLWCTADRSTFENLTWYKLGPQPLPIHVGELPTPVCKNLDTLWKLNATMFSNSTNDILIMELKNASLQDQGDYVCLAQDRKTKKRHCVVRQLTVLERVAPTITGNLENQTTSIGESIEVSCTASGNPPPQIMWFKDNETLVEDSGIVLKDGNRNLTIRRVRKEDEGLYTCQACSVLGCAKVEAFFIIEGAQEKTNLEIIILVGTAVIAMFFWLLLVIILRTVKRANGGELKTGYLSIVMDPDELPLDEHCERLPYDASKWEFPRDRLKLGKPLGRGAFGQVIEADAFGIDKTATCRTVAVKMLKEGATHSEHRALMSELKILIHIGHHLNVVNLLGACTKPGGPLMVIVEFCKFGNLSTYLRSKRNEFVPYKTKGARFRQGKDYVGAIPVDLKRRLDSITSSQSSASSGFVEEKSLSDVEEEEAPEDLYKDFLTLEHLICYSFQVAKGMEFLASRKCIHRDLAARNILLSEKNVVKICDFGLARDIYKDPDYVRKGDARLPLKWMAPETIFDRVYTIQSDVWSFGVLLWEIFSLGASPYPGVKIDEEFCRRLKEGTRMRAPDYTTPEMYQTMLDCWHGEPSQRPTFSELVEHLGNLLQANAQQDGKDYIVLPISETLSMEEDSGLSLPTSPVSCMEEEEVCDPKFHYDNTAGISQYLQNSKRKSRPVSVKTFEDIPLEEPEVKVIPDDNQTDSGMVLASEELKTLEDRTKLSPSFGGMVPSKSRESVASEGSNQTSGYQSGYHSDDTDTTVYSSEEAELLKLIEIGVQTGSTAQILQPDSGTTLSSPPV
Sequence of PDGFRβ (Q05030 32-1097): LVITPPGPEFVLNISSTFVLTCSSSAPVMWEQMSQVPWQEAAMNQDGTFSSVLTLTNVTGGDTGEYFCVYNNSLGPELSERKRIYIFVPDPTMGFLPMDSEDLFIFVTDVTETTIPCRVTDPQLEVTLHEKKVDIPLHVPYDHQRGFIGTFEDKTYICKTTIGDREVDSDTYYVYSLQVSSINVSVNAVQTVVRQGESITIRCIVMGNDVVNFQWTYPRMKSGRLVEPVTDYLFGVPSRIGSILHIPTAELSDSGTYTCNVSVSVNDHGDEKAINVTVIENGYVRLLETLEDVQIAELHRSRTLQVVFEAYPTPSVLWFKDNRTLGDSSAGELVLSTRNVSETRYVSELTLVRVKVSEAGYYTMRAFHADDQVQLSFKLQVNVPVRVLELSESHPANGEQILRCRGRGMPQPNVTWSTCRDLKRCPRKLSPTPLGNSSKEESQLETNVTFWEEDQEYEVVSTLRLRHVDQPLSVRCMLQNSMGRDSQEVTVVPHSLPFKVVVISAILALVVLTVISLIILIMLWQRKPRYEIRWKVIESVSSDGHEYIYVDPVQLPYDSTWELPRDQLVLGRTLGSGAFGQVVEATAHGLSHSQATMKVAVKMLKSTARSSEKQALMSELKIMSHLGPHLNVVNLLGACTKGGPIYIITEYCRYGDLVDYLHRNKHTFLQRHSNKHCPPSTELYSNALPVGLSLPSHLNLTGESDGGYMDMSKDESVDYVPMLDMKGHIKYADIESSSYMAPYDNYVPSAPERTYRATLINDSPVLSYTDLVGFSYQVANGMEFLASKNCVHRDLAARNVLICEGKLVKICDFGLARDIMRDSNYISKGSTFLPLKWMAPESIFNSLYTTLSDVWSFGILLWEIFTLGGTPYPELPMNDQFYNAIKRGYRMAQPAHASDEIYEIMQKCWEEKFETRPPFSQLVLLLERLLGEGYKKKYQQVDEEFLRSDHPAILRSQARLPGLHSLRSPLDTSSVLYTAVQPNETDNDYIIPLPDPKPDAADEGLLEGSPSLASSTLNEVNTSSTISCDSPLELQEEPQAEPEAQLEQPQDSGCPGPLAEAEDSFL
Sequence of His6-TEV-PDGFRβ (557-1016) (P09619 557-1016): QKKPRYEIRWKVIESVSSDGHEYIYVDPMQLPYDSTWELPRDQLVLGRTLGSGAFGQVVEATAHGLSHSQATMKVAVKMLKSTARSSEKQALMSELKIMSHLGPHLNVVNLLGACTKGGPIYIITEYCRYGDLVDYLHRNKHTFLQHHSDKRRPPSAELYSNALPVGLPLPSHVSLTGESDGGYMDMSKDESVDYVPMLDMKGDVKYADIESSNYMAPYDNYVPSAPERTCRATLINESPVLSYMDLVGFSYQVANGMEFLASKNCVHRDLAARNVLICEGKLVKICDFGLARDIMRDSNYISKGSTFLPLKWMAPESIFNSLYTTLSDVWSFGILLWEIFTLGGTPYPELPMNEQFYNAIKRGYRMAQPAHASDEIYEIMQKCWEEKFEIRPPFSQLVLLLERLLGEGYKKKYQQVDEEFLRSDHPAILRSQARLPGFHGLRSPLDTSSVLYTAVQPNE

SMILES	IC50 (VEGFR2, unphosphorylated)	IC50 (PDGFRβ; read-out: PDGFR Cellular IC50)	IC50 (PDGFRβ; PDGFR Cellular IC50)	IC50 [1]
COCCn1cc(-c2cn3ncc(C(=O)Nc4cc(NC(=O)CN5CC[C@H](C)C5)cnc4C)c3s2)cn1 (single isomer, unassigned) [Example 328, (S*)-2-(1-(2-methoxyethyl)-1H-pyrazol-4-yl)-N-(2-methyl-5-(2-(3-methylpyrrolidin-1-yl)acetamido)pyridin-3-yl)pyrazolo[5,1-b]thiazole-7-carboxamide]	> 7500 nM	7.1 nM	–	–
CCOC1CN(CC(=O)Nc2cnc(C)c(NC(=O)c3cnn4cc(-c5cccnc5OC)sc34)c2)C1 [Example 401]	–	10.3 nM	–	–
COc1ncccc1-c1cn2ncc(C(=O)Nc3cc(NC(=O)CN4CC(OC)C4)cnc3C)c2s1 [Example 400, N-(5-(2-(3-methoxyazetidin-1-yl)acetamido)-2-methylpyridin-3-yl)-2-(2-methoxypyridin-3-yl)pyrazolo[5,1-b]thiazole-7-carboxamide]	> 7500 nM	–	14.8 nM	–
Cc1ncc(NC(=O)CN2CC(C)(C)C2)cc1NC(=O)c1cnn2cc(-c3c(C)noc3C)sc12 [Example 364, N-(5-(2-(3,3-dimethylazetidin-1-yl)acetamido)-2-methylpyridin-3-yl)-2-(3,5-dimethylisoxazol-4-yl)pyrazolo[5,1-b]thiazole-7-carboxamide]	> 7500 nM	–	10.3 nM	0.8 nM
Cc1ncc(NC(=O)CN2C[C@H](C)O[C@@H](C)C2)cc1NC(=O)c1cnn2cc(-c3ccc[nH]c3=O)sc12 (relative stereo) [Example 370, N-(5-(2-(trans-2,6-dimethylmorpholino)acetamido)-2-methylpyridin-3-yl)-2-(2-oxo-1,2-dihydropyridin-3-yl)pyrazolo[5,1-b]thiazole-7-carboxamide]	> 7500 nM	–	544 nM	1 nM
COc1ncccc1-c1cn2ncc(C(=O)Nc3cc(NC(=O)CN4C[C@H](CO)O[C@@H](C)C4)cnc3C)c2s1 (stereo in doubt) [Example 381, N-(5-(2-(cis-2-(hydroxymethyl)-6-methylmorpholino)acetamido)-2-methylpyridin-3-yl)-2-(2-methoxypyridin-3-yl)pyrazolo[5,1-b]thiazole-7-carboxamide]	> 833 nM	16 nM	–	–
COCCn1cc(-c2cn3ncc(C(=O)Nc4cc(NC(=O)CN5CC[C@@H](C)C5)cnc4C)c3s2)cn1 (single isomer, unassigned) [Example 327, (R*)-2-(1-(2-methoxyethyl)-1H-pyrazol-4-yl)-N-(2-methyl-5-(2-(3-methylpyrrolidin-1-yl)acetamido)pyridin-3-yl)pyrazolo[5,1-b]thiazole-7-carboxamide]	> 7500 nM	9.9 nM	–	–
Cc1ncc(NC(=O)CN2CCC[C@@H]2C)cc1NC(=O)c1cnn2cc(-c3cn(C)nc3C)sc12 [Example 438, (S)-2-(1,3-dimethyl-1H-pyrazol-4-yl)-N-(2-methyl-5-(2-(2-methylpyrrolidin-1-yl)acetamido)pyridin-3-yl)pyrazolo[5,1-b]thiazole-7-carboxamide]	> 7500 nM	–	3.7 nM	–
Cc1ncc(NC(=O)CN2CCC[C@H]2C)cc1NC(=O)c1cnn2cc(-c3cn(C)nc3C)sc12 [Example 440, (R)-2-(1,3-dimethyl-1H-pyrazol-4-yl)-N-(2-methyl-5-(2-(2-methylpyrrolidin-1-yl)acetamido)pyridin-3-yl)pyrazolo[5,1-b]thiazole-7-carboxamide]	> 7500 nM	–	1.6 nM	–
COC1CCN(CC(=O)Nc2cnc(C)c(NC(=O)c3cnn4cc(-c5cn(C)nc5C)sc34)c2)C1 (stereo not drawn) [Example 439, 2-(1,3-Dimethyl-1H-pyrazol-4-yl)-N-(5-(2-(3-methoxypyrrolidin-1-yl)acetamido)-2-methylpyridin-3-yl)pyrazolo[5,1-b]thiazole-7-carboxamide]	> 7500 nM	–	12.2 nM	–
